From ChEMBL document CHEMBL2406963, “Tetrazole and triazole as bioisosteres of carboxylic acid: discovery of diketo tetrazoles and diketo triazoles as anti-HCV agents” (Bioorg Med Chem Lett, 2013) come the findings set out here.

What is called inhibition is the change of the read-out against control, counted positive when it falls. By CC50 is commonly meant the concentration that lowers cell viability or growth by half. One may read the EC50 as the midpoint of the concentration-response curve.

The subject of data set [1] is Hepatitis C virus. The data set is described as follows: Antiviral activity against HCV infected in human Huh7 cells assessed as inhibition of viral replication by measuring EGFP autofluorescence at 50 uM by CCK8 assay relative to control. In kind it is functional, Hepacivirus hominis. Conditions: Huh-7.
In data set [2] the test system is Hepatitis C virus. The data set is described as follows: Antiviral activity against HCV infected in human Huh7 cells assessed as inhibition of viral replication by measuring EGFP autofluorescence at 2 uM by CCK8 assay relative to control. In kind it is functional, Hepacivirus hominis. Conditions: Huh-7. Background: Tetrazolium dyes change colour on reduction, which living cells bring about.

Data set [3] can be described thus: Cytotoxicity against human HuH7 cells. In kind it is cell-based, Huh-7.
The subject of data set [4] is Hepatitis C virus. The experiment in a line: Antiviral activity against HCV infected in human Huh7 cells assessed as inhibition of viral replication by measuring EGFP autofluorescence by CCK8 assay. The class given is functional, organism-based, Hepacivirus hominis. The following applies: Huh-7.
Data set [5] in a line: Selectivity index, ratio of CC50 for human HuH7 cells to EC50 for HCV. Details: species or system Huh-7.
Data set [6] relates to Hepatitis C virus. The data set is described as follows: Inhibition of viral genome mRNA expression in HCV by RT-PCR analysis. The class given is functional, organism-based. Conditions: Hepacivirus hominis.
Data set [7] concerns Hepatitis C virus. The experiment in a line: Inhibition of NS5A protein synthesis in HCV by Western blot analysis. Conditions: Hepacivirus hominis. In kind it is functional, organism-based. (In general: In western blotting, separated proteins are transferred to a membrane and probed.)

Bounds are passed on as bounds.

As for `O=C(CC(=O)c1nnn[nH]1)c1cccc(OCc2ccc(F)cc2)c1`, in data set [1], the inhibition at 50 µM came to 62.7%.

Consider `O=C(/C=C(\O)c1nc[nH]n1)c1ccc(Cc2ccc(F)cc2)o1` [S-1360], for which the inhibition at 50 µM in data set [1] stood at 22.4%. Consider `COc1ccc(C(=O)CC(=O)c2nnn[nH]2)cc1`, for which, in data set [1], the inhibition at 50 µM stood at 28.7%. Regarding `CC(C)C(=O)OC[C@H]1O[C@@H](n2ccc(N)nc2=O)[C@](C)(F)[C@@H]1OC(=O)C(C)C` [MERICITABINE], the inhibition at 2 µM in data set [2] was determined as 75.3%. As for `O=C(CC(=O)c1ccccc1OCc1ccc(Cl)cc1)c1nnc[nH]1`, in data set [1], the inhibition at 50 µM worked out at 53.8%. With `O=C(CC(=O)c1nnn[nH]1)c1cccc(OCc2ccccc2)c1`, in data set [1], the inhibition at 50 µM came out at 11.1%. In turn, `O=C(CC(=O)c1ccccc1OCc1ccccc1)c1nnn[nH]1` had a cytotoxic concentration (CC50) in data set [3] above 500 µM. In addition, the concentration for a half-maximal effect (EC50) in data set [4] amounted to 9.2 µM. For the same compound, in data set [5], the “Ratio CC50/EC50” value is recorded as above 54. In data set [1], the inhibition at 50 µM worked out at 67.6%.

`O=C(CC(=O)c1nnc[nH]1)c1cccc(OCc2ccc(F)cc2)c1`: the inhibition at 50 µM in data set [1] worked out at 43.4%. Same read-out and setting: the value for `O=C(CC(=O)c1ccccc1OCc1ccc(F)cc1)c1nnc[nH]1` was 55%. The same measure, in the same setting: the figure for `O=C(CC(=O)c1nnn[nH]1)c1ccc(OCc2ccc(F)cc2)cc1` is 10.7%. The same measure, in the same setting: the figure for `O=C(CC(=O)c1nnc[nH]1)c1ccccc1` is 24.8%.

With `O=C(/C=C(\O)c1nnn[nH]1)c1c[nH]c2ccc(Cl)cc12`, the inhibition at 50 µM in data set [1] turned out to be 24.3%. As to `O=C(CC(=O)c1nnc[nH]1)c1ccc(OCc2ccccc2)cc1`, the inhibition at 50 µM in data set [1] was 12.1%. On the same count and under the same terms, the figure for `O=C(CC(=O)c1nnn[nH]1)c1ccccc1` is -1.3%; for `O=C(CC(=O)c1nnn[nH]1)c1ccc(OCc2ccc(Cl)cc2)cc1` it is 64.9%; for `O=C(CC(=O)c1nnn[nH]1)c1ccc(OCc2ccccc2)cc1` it is 54.9%. As to `O=C(CC(=O)c1nnn[nH]1)c1ccc([N+](=O)[O-])cc1`, in data set [1], the inhibition at 50 µM stood at 14.7%. Still for that read-out and setting: the figure for `O=C(CC(=O)c1nnc[nH]1)c1cccc(OCc2ccccc2)c1` is 48.2%.

For the compound `O=C(CC(=O)c1ccccc1OCc1ccccc1)c1nnc[nH]1`, in data set [1], the inhibition at 50 µM worked out at 34.4%.

Consider `O=C(CC(=O)c1ccccc1OCc1ccc(F)cc1)c1nnn[nH]1`, for which, in data set [1], the inhibition at 50 µM stood at 6.8%. For `O=C(CC(=O)c1nnc[nH]1)c1ccc(OCc2ccc(F)cc2)cc1`, the inhibition entry in data set [6] and in data set [7] was “Dose-dependent effect” in each case. Further, the CC50 in data set [3] is above 500 µM. Also, the EC50 in data set [4] stood at 3.9 µM. In addition, in data set [5], the “Ratio CC50/EC50” value is recorded as above 128. The inhibition at 50 µM in data set [1] worked out at 69.7%.

On to `O=C(CC(=O)c1ccco1)c1nnc[nH]1`, for which the inhibition at 50 µM in data set [1] came to 14.5%. Regarding `O=C(CC(=O)c1nnc[nH]1)c1ccc(OCc2ccc(Cl)cc2)cc1`, the CC50 in data set [3] is above 500 µM. Moreover, the 50% effective concentration (EC50) in data set [4] is 6.5 µM. In addition, in data set [5], the “Ratio CC50/EC50” value is above 77. Also, the inhibition at 50 µM in data set [1] was found to be 70.2%.

For the compound `O=C(CC(=O)c1nnn[nH]1)c1cccc(OCc2ccc(Cl)cc2)c1`, in data set [1], the inhibition at 50 µM stood at 43.6%. Same read-out and setting: the value for `O=C(CC(=O)c1ccco1)c1nnn[nH]1` was 0.9%; that for `O=C(CC(=O)c1nnc[nH]1)c1cccc(OCc2ccc(Cl)cc2)c1` was 29.2%; that for `O=C(CC(=O)c1ccccc1OCc1ccc(Cl)cc1)c1nnn[nH]1` was 36.2%.
